Results as given in patent publication US20230293530A1, “AGENTS FOR SENSITIZING SOLID TUMORS TO TREATMENT” (Yeda Research and Development Co. Ltd., priority 2020, published 2023).

Experiments:
MC38 cells = assay: Nucleotide levels by LC-MS in MC38 cells with or without mizoribine; type: cell-based, mouse; conditions: 300 µM mizoribine, 24 h
Experimental: A) Purine/pyrimidine ratio is increased upon nutrient deprivation in […] colon cancer cells. MC38 cells were grown in either regular medium or in medium without glucose for 24 h. Nucleotide levels were measured by LC-MS. Purine/pyrimidine ratio was calculated by dividing (AMP+GMP) AUC by (UMP+CMP) AUC. B) 4T1 cells with and without shASS1 were grown in glucose free medium either supplemented or not with 10 mM L-Name for 48 hrs. Nucleotide levels were measured by LC-MS. Purine/pyrimidine ratio was calculated by dividing the sum levels of (AMP+GMP) by the sum levels of (UMP+CMP+TMP). […] MC38 cells were grown either with or without 300 µM mizoribine for 24 h. Nucleotide levels were measured by LC-MS. […] Cell viability was measured by crystal violet staining. […]
LC-MS analysis: The LC-MS/MS instrument consisting of an Acquity I-class UPLC system (Waters) and Xevo TQ-S triple quadrupole mass spectrometer (Waters), equipped with an electrospray ion source, and operated in positive ion mode was used for analysis of nucleoside monophosphates. […] Nucleotide concentration was calculated using a standard curve of the relevant nucleotide concentration in each sample. Standard curves included increasing concentration of all measured nucleotides ranging from 0-10 ug/ml that were positioned at the beginning and at the end of each run. […]

4T1 breast cancer cells = assay: DNA (whole-exome) sequencing analysis of mutational bias; type: cell-based, murine; conditions: 4T1 cells, 300 µM mizoribine, 24 h
Experimental: B) The purine/pyrimidine ratio is increased upon glucose deprivation in murine breast cancer cells. 4T1 cells were grown in the absence of glucose for 24h (baseline) and 48h and quantified by liquid chromatography-mass spectrometry (LC-MS). Nucleotide levels were measured in µg/ml and corrected for protein concentration. Purine/pyrimidine ratio was calculated by dividing (AMP+GMP) by (UMP+CMP) relative concentrations. C) ASS1 inhibition decreases the purine/pyrimidine ration under glucose deprivation. 4T1 cells were grown in the presence or absence of glucose for 48 h and analysed as in 1B. […] Cells were grown and treated as in 5B. […] 4T1 cells were grown either with or without 300 µM mizoribine for 24 h. Nucleotide levels were measured by LC-MS. […] Each experiment was conducted with biological and technical replicates and repeated at least three times. […] Nucleotide levels were measured as described below by LC-MS. Purine/pyrimidine ratio was calculated by dividing (AMP+GMP+ATP+GTP) concentration by (UMP+CMP+TMP+UTP+CTP+TTP) concentration before and after methotrexate. […]
4T1 cells treated as outlined above were followed by lysis and DNA isolation using DNeasy blood and tissue kit (Quiagen). […] Purine to pyrimidine (R>Y) and pyrimidine to purine (Y>R) mutations on the sense strand were counted and pooled per condition to achieve sufficient values for statistical analysis. […]

Compound: NC(=O)c1ncn([C@@H]2O[C@H](CO)[C@@H](O)[C@H]2O)c1O [Mizoribine, mizoribine]
- purine/pyrimidine ratio (AMP+GMP) AUC/(UMP+CMP) AUC (MC38 cells): decreased purine/pyrimidine ratio
- mutational bias by DNA sequencing analysis (4T1 breast cancer cells): pyrimidine mutational bias
